Experimental data taken from paper PMC5138414, “Structural Basis for Redox Regulation of Cytoplasmic and Chloroplastic Triosephosphate Isomerases from Arabidopsis thaliana” (Frontiers in Plant Science, 2016).

Columns and labels:
Assay in all cases: residual activity after MMTS incubation, coupled assay at […] nm
Assay type in all cases: biochemical
cTPI [1] = target: T1, cTPI (Arabidopsis thaliana, UniProt P48491); details: covalent (C13, C218); 3 h incubation at room temperature, 0.184 nM enzyme, TEA pH 7.4, 10 mM EDTA
T1 construct: gene CTIMC; homodimer

cTPI [2] = target: T2, cTPI (Arabidopsis thaliana, UniProt P48491, C218S); details: read-out: MMTS concentration necessary to inhibit 50%
T2 construct: gene CTIMC; homodimer
T2 sequence (P48491 1-254 C218S): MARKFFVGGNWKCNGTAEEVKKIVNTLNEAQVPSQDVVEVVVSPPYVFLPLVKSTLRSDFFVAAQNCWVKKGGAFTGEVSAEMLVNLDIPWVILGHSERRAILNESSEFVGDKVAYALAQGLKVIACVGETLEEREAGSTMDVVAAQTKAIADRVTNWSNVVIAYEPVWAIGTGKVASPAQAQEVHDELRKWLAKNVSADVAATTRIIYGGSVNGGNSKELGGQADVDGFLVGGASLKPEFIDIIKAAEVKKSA

pdTPI [3] = target: T3, pdTPI (Arabidopsis thaliana, UniProt Q9SKP6); details: read-out: 50% of enzymatic activity
T3 construct: gene TIM; homodimer
Target sequence in this assay (Q9SKP6 60-315): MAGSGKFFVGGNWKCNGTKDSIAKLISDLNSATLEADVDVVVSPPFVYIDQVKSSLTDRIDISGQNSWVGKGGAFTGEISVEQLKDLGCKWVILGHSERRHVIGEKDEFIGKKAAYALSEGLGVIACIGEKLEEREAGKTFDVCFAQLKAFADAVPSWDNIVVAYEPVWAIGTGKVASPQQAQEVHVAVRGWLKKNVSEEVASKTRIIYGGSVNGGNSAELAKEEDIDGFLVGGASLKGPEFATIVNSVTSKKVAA

pdTPI [4] = target: T3, pdTPI; details: covalent (cysteine); 3 h incubation at room temperature, 0.184 nM enzyme, TEA pH 7.4, 10 mM EDTA; MMTS 0-50 µM
Target sequence in this assay (Q9SKP6 60-315 C148S): as the sequence (Q9SKP6 60-315) above, with C89S counted along it

cTPI [5] = target: T4, cTPI (Arabidopsis thaliana, UniProt P48491, C13S)
T4 construct: gene CTIMC; homodimer
T4 sequence (P48491 whole entry C13S): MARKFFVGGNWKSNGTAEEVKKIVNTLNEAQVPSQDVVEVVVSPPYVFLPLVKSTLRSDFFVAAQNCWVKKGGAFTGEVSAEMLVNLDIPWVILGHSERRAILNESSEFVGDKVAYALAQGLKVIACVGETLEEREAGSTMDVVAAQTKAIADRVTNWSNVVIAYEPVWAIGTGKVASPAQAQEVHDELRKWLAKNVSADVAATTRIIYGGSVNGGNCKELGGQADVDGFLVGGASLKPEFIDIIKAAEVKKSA

T1 sequence (P48491 whole entry): as the sequence (P48491 whole entry C13S) above, with S13C counted along it

CSS(C)(=O)=O [MMTS]
% decrease of activity at 31.25 nM (cTPI [1]): 90%
IC50 (cTPI [2]): 125 nM
IC50 (pdTPI [3]): > 10000 nM
% activity remaining (dose curve) (pdTPI [4]): Mutation pdTPI-C89S is more susceptible to MMTS inhibition
remaining activity at 0.125 µM (cTPI [5]): 70%
